Assay [1] concerns the target T1, Oxytocin receptor (Homo sapiens, UniProt P30559).
T1 sequence (P30559 whole entry): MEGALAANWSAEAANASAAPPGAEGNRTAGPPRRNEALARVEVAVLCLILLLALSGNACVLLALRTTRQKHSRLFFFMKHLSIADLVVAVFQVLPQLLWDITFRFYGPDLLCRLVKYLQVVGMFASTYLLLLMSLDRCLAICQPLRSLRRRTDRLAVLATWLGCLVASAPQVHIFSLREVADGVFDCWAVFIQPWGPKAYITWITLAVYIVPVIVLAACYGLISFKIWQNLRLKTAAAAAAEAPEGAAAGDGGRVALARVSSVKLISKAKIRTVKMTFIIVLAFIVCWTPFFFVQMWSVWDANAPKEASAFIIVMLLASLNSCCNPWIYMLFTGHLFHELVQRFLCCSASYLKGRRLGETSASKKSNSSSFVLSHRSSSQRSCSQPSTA
In words: Agonist activity at oxytocin receptor (unknown origin) expressed in CHO cells by IP-1 accumulation assay. Type of assay: functional, cell-based.

Assay [2] deals with Vasopressin V1a receptor (Homo sapiens, UniProt P37288). Description: Antagonist activity at V1A receptor (unknown origin) by calcium signal assay. Type of assay: functional.
Assay [3] in a line: Selectivity ratio, IC50 for antagonist activity at V1A receptor (unknown origin) to EC50 for agonist activity at oxytocin receptor (unknown origin) expressed in CHO cells. Type of assay: cell-based.

Structures are written as SMILES.

We go through six compounds from ChEMBL document CHEMBL6134921, “Novel Tetrahydrobenzo[b]pyrazolo[3,4-e][1,4]diazepine Compounds as Oxytocin Receptor Agonists for Treating Autism Spectrum Disorders” (ACS Med Chem Lett, 2025).

One may read the EC50 as the concentration giving half of the maximal effect. Read a low EC50 as an effect from little substance. In general, IC50 refers to the point on the concentration scale where inhibition reaches its midpoint.

Vasopressin V1a receptor, sequence (P37288 whole entry): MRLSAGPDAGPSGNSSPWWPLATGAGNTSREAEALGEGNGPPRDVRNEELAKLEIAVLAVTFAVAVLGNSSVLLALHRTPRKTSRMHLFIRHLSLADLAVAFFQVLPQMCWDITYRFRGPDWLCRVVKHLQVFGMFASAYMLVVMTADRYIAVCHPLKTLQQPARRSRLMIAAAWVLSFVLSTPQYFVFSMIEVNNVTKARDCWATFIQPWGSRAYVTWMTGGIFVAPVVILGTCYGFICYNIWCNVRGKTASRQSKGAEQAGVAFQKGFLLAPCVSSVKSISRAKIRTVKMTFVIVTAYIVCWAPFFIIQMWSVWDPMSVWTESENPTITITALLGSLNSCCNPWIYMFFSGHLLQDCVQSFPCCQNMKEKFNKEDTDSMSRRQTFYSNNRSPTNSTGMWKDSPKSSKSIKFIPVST

As to `Cc1cc(C(=O)N2Cc3cnn(C)c3Nc3ccccc32)ccc1CNC(=O)N1C[C@H](n2cc(COCCF)nn2)C[C@H]1C(=S)N(C)C`, a half-maximal effect in assay [1] (EC50) was put at 0.55 nM.

As for `Cc1cc(C(=O)N2Cc3cnn(C)c3Nc3ccccc32)ccc1CNC(=O)N1C[C@H](n2cc(CO)nn2)C[C@H]1C(=S)N(C)C`, the response in assay [1] was half-maximal at 0.15 nM (EC50). For the same compound, the IC50 in assay [2] is 966 nM. Further, the Ratio IC50/EC50 in assay [3] worked out at 6450.

`Cc1cc(C(=O)N2Cc3cnn(C)c3Nc3ccccc32)ccc1CNC(=O)N1C[C@@H](n2cc(CO)nn2)C[C@H]1C(=S)N(C)C` had an EC50 in assay [1] of 0.14 nM. In assay [2], the IC50 worked out at 700 nM. The Ratio IC50/EC50 in assay [3] was found to be 5000.

For `Cc1cc(C(=O)N2Cc3cnn(C)c3Nc3ccccc32)ccc1CNC(=O)N1C[C@H](n2cc(CC3NC(=O)NC3=O)nn2)C[C@H]1C(=S)N(C)C` (some centres undefined), the EC50 in assay [1] turned out to be 0.26 nM. Besides, the IC50 in assay [2] was 393 nM. Besides, in assay [3], the Ratio IC50/EC50 came to 1510.

The compound `Cc1cc(C(=O)N2Cc3cnn(C)c3Nc3ccccc32)ccc1CNC(=O)N1C[C@H](n2cc(CF)nn2)C[C@H]1C(=S)N(C)C` registered an EC50 in assay [1] of 0.31 nM.

`Cc1cc(C(=O)N2Cc3cnn(C)c3Nc3ccccc32)ccc1CNC(=O)N1C[C@H](n2cc(CCc3nnn[nH]3)nn2)C[C@H]1C(=S)N(C)C` yielded an EC50 in assay [1] of 1.95 nM. In assay [2], the IC50 was more than 10000 nM. For the same compound, the Ratio IC50/EC50 in assay [3] was more than 5000.
